The test system of the assay is Normal male Sprague Dawley rats. The assay is described as follows: Effect of liraglutide on alcohol consumption (two-bottle choice: water vs 10% alcoholic drink). It is filed as in vivo, rat. The text has this: Certain strains of rats are alcohol dependent and consume large amounts of alcohol if given the choice.
Normal male Sprague Dawley rats were housed individually and fed normal rat chow. Each rat had access to two drinking bottles, one of them containing water and one of them containing a 10% alcoholic drink (diluted Toffee liquor from ALDI®). The rats were acclimatised to the alcoholic drink for a least one week. Consumption of water and the alcoholic drink were continuously recorded on line using the BIOdaq food and water intake monitoring system http://www.bodaq.com/®.
Basal water and alcoholic drink consumption was recorded on a 24 h daily basis. After this had stabilised, consumption of water and alcoholic drink was recorded over a 24 h period. […] Water and alcohol consumption were recorded for 24 h after injection.

The record followed here is US20150038417A1, “GLP-1 Agonists” (Novo Nordisk A/S, priority 2011, published 2015).

As for “Liraglutide (HAEGTFTSDVSSYLEGQAAKEFIAWLVRGRG; chains of the INN, looked up)”, the “Accumulated fluid intake over 24 h, alcohol (10% alcoholic drink), after Liraglutide (Mean ± SEM)” value (30 μg/kg liraglutide s.c., single dose, 24 h after injection, n=8, same group before dosing 25.6 ± 0.6 g, p < 0.001, paired t-test) is recorded as 16.1 ± 1.3 g. Besides, the “Effect on 24 h intake of alcoholic drink and water (in words)” value (30 μg/kg liraglutide s.c., before vs after administration) was “significantly and selectively reduced intake of alcoholic drink and not water”. Besides, under “rats offered to choose between alcohol and water”, the “Alcohol intake compared with vehicle treated rats (in words)” value is “significantly reduces the alcohol intake”.
